Experimental data: US20140303164A1, “THERAPEUTIC COMPOUNDS” (Gilead Sciences, Inc., priority 2013, published 2014)

Key:
HIV-IIIb = assay: Test A: Antiviral Assay in MT4 Cells; format: cell-based, HIV-1; settings: Human immunodeficiency virus 1, IIIB, MT4, 120 h; for inhibition at 0.2 µM: read-out: % inhibition at 0.2 μM; for inhibition at 2 µM: read-out: % inhibition at 2 μM
Description: Test A: Antiviral Assay in MT4 Cells
MT-4 cells were next mixed with HIV-IIIb at an m.o.i of 0.003 for 1 hour, after which time 35 μL of virus/cell mixture (2000 cells) was immediately added to each well containing 40 μL of diluted compound. The plates were then incubated at 37° C. for 5 days. […] Cell lysis was carried out by incubating at room temperature for 10 min and then chemiluminescence was read.

[1] = Test B: Cytotoxicity Assay; format: cell-based; settings: human, uninfected MT-4 cells, same protocol as Test A
Procedure, shortened: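 Uninfected MT-4 cells (2000 per well) incubated with diluted compound at 37° C. for 5 days, following the antiviral protocol without HIV-IIIb.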

Structure (SMILES)	inhibition at 0.2 µM (HIV-IIIb)	inhibition at 2 µM (HIV-IIIb)	CC50 at 5 days [1]
Cn1cc(S(=O)(=O)Nc2nn(C)c3c(-c4ccc(C#CC(C)(C)O)nc4[C@H](Cc4cc(F)cc(F)c4)NC(=O)Cn4nc(C(F)(F)F)c5c4C(F)(F)[C@@H]4C[C@H]54)cccc23)cn1 [Compound 48, 2-((3bS,4aR)-5,5-difluoro-3-(trifluoromethyl)-3b,4,4a,5-tetrahydro-1H-cyclopropa[3,4]cyclopenta[1,2-c]pyrazol-1-yl)-N—((S)-2-(3,5-difluorophenyl)-1-(6-(3-hydroxy-3-methylbut-1-yn-1-yl)-3-(1-methyl-3-(1-methyl-1H-pyrazole-4-sulfonamido)-1H-indazol-7-yl)pyridin-2-yl)ethyl)acetamide]	88%	88%	24 µM
Cn1nc(NS(C)(=O)=O)c2c(C(F)F)ccc(-c3ccc(C#CC(C)(C)O)nc3[C@H](Cc3cc(F)cc(F)c3)NC(=O)Cn3nc(C(F)F)c4c3C(F)(F)[C@@H]3C[C@H]43)c21 [Compound 155I, N—((S)-1-(3-(4-(difluoromethyl)-1-methyl-3-(methylsulfonamido)-1H-indazol-7-yl)-6-(3-hydroxy-3-methylbut-1-yn-1-yl)pyridin-2-yl)-2-(3,5-difluorophenyl)ethyl)-2-((3b-S,4aR)-3-(difluoromethyl)-5,5-difluoro-3b,4,4a,5-tetrahydro-1H-cyclopropa[3,4]cyclopenta[1,2-c]pyrazol-1-yl)acetamide]	99%	99%	26.8 µM
COC(=O)Nc1nn(CC(=O)N[C@@H](Cc2cc(F)cc(F)c2)c2nc(C#CC(C)(C)O)ccc2-c2ccc(Cl)c3c(NS(C)(=O)=O)nn(C)c23)c2c1[C@H]1C[C@H]1C2(F)F [Compound 162, methyl ((3bS,4aR)-1-(2-(((S)-1-(3-(4-chloro-1-methyl-3-(methylsulfonamido)-1H-indazol-7-yl)-6-(3-hydroxy-3-methylbut-1-yn-1-yl)pyridin-2-yl)-2-(3,5-difluorophenyl)ethyl)amino)-2-oxoethyl)-5,5-difluoro-3b,4,4a,5-tetrahydro-1H-cyclopropa[3,4]cyclopenta[1,2-c]pyrazol-3-yl)carbamate]	81%	81%	22.4 µM
CCOC(=O)c1nn(CC(=O)N[C@@H](Cc2cc(F)cc(F)c2)c2nc(C#CC(C)(C)O)ccc2-c2ccc(Cl)c3c(NS(C)(=O)=O)nn(C)c23)c2c1[C@H]1C[C@H]1C2(F)F [Compound 158G, (3bS,4aR)-ethyl 1-(2-(((S)-1-(3-(4-chloro-1-methyl-3-(methylsulfonamido)-1H-indazol-7-yl)-6-(3-hydroxy-3-methylbut-1-yn-1-yl)pyridin-2-yl)-2-(3,5-difluorophenyl)ethyl)amino)-2-oxoethyl)-5,5-difluoro-3b,4,4a,5-tetrahydro-1H-cyclopropa[3,4]cyclopenta[1,2-c]pyrazole-3-carboxylate]	71%	71%	26.7 µM
Cn1nc(NC(=O)c2ccno2)c2c(Cl)ccc(-c3ccc(C#CC(C)(C)O)nc3[C@H](Cc3cc(F)cc(F)c3)NC(=O)Cn3nc(C(F)F)c4c3C(F)(F)[C@@H]3C[C@H]43)c21 [Compound 87, N-(4-chloro-7-(2-((S)-1-(2-((3b-S,4aR)-3-(difluoromethyl)-5,5-difluoro-3b,4,4a,5-tetrahydro-1H-cyclopropa[3,4]cyclopenta[1,2-c]pyrazol-1-yl)acetamido)-2-(3,5-difluorophenyl)ethyl)-6-(3-hydroxy-3-methylbut-1-yn-1-yl)pyridin-3-yl)-1-methyl-1H-indazol-3-yl)isoxazole-5-carboxamide]	95%	96%	6.8 µM
Cn1nc(N)c2cccc(-c3ccc(C#CC(C)(C)O)nc3[C@H](Cc3cc(F)cc(F)c3)NC(=O)Cn3nc(C(F)F)c4c3C(F)(F)CCC4(F)F)c21 [Compound 31, (S)—N-(1-(3-(3-amino-1-methyl-1H-indazol-7-yl)-6-(3-hydroxy-3-methylbut-1-yn-1-yl)pyridin-2-yl)-2-(3,5-difluorophenyl)ethyl)-2-(3-(difluoromethyl)-4,4,7,7-tetrafluoro-4,5,6,7-tetrahydro-1H-indazol-1-yl)acetamide]	89%	89%	8.03 µM
Cn1nc(N)c2cccc(-c3cnc(C#CC(C)(C)O)nc3[C@H](Cc3cc(F)cc(F)c3)NC(=O)Cn3nc(C(F)F)c4c3C(F)(F)CCC4(F)F)c21 [Compound 37F, (S)—N-(1-(5-(3-amino-1-methyl-1H-indazol-7-yl)-2-(3-hydroxy-3-methylbut-1-yn-1-yl)pyrimidin-4-yl)-2-(3,5-difluorophenyl)ethyl)-2-(3-(difluoromethyl)-4,4,7,7-tetrafluoro-4,5,6,7-tetrahydro-1H-indazol-1-yl)acetamide]	90%	90%	6.35 µM
CNc1nn(C)c2c(-c3ccc(C#CC(C)(C)O)nc3[C@H](Cc3cc(F)cc(F)c3)NC(=O)Cn3nc(C(F)F)c4c3C(F)(F)[C@@H]3C[C@H]43)cccc12 [Compound 68G, 2-((3b-S,4aR)-3-(difluoromethyl)-5,5-difluoro-3b,4,4a,5-tetrahydro-1H-cyclopropa[3,4]cyclopenta[1,2-c]pyrazol-1-yl)-N—((S)-2-(3,5-difluorophenyl)-1-(6-(3-hydroxy-3-methylbut-1-yn-1-yl)-3-(1-methyl-3-(methylamino)-1H-indazol-7-yl)pyridin-2-yl)ethyl)acetamide]	96%	96%	9.64 µM
Cn1nc(N)c2cccc(-c3ccc(C#CC(C)(C)O)nc3[C@H](Cc3cc(F)cc(F)c3)NC(=O)Cn3nc(C(F)F)c4c3C3CC3CC4)c21 (stereo partly drawn) [Compound 34, N—((S)-1-(3-(3-amino-1-methyl-1H-indazol-7-yl)-6-(3-hydroxy-3-methylbut-1-yn-1-yl)pyridin-2-yl)-2-(3,5-difluorophenyl)ethyl)-2-(3-(difluoromethyl)-5,5a,6,6a-tetrahydrocyclopropa[g]indazol-1(4H)-yl)acetamide]	78%	78%	8.76 µM
Cn1nc(NS(C)(=O)=O)c2cccc(-c3ccc(C#CC(C)(C)O)nc3[C@H](Cc3cc(F)cc(F)c3)NC(=O)Cn3nc(C(F)F)c4c3C3CC3CC4)c21 (stereo partly drawn) [Compound 43, 2-(3-(difluoromethyl)-5,5a,6,6a-tetrahydrocyclopropa[g]indazol-1(4H)-yl)-N—((S)-2-(3,5-difluorophenyl)-1-(6-(3-hydroxy-3-methylbut-1-yn-1-yl)-3-(1-methyl-3-(methylsulfonamido)-1H-indazol-7-yl)pyridin-2-yl)ethyl)acetamide]	100%	100%	15.4 µM
Cn1nc(NS(C)(=O)=O)c2c(Cl)ccc(-c3ccc(C#CC(C)(C)O)nc3[C@H](Cc3cc(F)cc(F)c3)NC(=O)Cn3nc(I)c4c3C(F)(F)[C@@H]3C[C@H]43)c21 [Compound 160, N—((S)-1-(3-(4-chloro-1-methyl-3-(methylsulfonamido)-1H-indazol-7-yl)-6-(3-hydroxy-3-methylbut-1-yn-1-yl)pyridin-2-yl)-2-(3,5-difluorophenyl)ethyl)-2-((3bS,4aR)-5,5-difluoro-3-iodo-3b,4,4a,5-tetrahydro-1H-cyclopropa[3,4]cyclopenta[1,2-c]pyrazol-1-yl)acetamide]	100%	100%	20.5 µM
Cn1nc(NC(=O)C2CC2)c2c(Cl)ccc(-c3ccc(C#CC(C)(C)O)nc3[C@H](Cc3cc(F)cc(F)c3)NC(=O)Cn3nc(C(F)F)c4c3C(F)(F)[C@@H]3C[C@H]43)c21 [Compound 86, N-(4-chloro-7-(2-((S)-1-(2-((3b-S,4aR)-3-(difluoromethyl)-5,5-difluoro-3b,4,4a,5-tetrahydro-1H-cyclopropa[3,4]cyclopenta[1,2-c]pyrazol-1-yl)acetamido)-2-(3,5-difluorophenyl)ethyl)-6-(3-hydroxy-3-methylbut-1-yn-1-yl)pyridin-3-yl)-1-methyl-1H-indazol-3-yl)cyclopropanecarboxamide]	99%	99%	6.47 µM
COCCC(=O)Nc1nn(C)c2c(-c3ccc(C#CC(C)(C)O)nc3[C@H](Cc3cc(F)cc(F)c3)NC(=O)Cn3nc(C(F)F)c4c3C(F)(F)[C@@H]3C[C@H]43)ccc(Cl)c12 [Compound 85, N-(4-chloro-7-(2-((S)-1-(2-((3b-S,4aR)-3-(difluoromethyl)-5,5-difluoro-3b,4,4a,5-tetrahydro-1H-cyclopropa[3,4]cyclopenta[1,2-c]pyrazol-1-yl)acetamido)-2-(3,5-difluorophenyl)ethyl)-6-(3-hydroxy-3-methylbut-1-yn-1-yl)pyridin-3-yl)-1-methyl-1H-indazol-3-yl)-3-methoxypropanamide]	96%	96%	7.85 µM
CC(C)(O)C#Cc1ncc(-c2ccc3c(c2)C(=O)NC3)c([C@H](Cc2cc(F)cc(F)c2)NC(=O)Cn2nc(C(F)(F)F)c3c2C(F)(F)[C@@H]2C[C@H]32)n1 [Compound 22C, 2-((3bS,4aR)-5,5-difluoro-3-(trifluoromethyl)-3b,4,4a,5-tetrahydro-1H-cyclopropa[3,4]cyclopenta[1,2-c]pyrazol-1-yl)-N—((S)-2-(3,5-difluorophenyl)-1-(2-(3-hydroxy-3-methylbut-1-yn-1-yl)-5-(3-oxoisoindolin-5-yl)pyrimidin-4-yl)ethyl)acetamide]	92%	92%	4.95 µM
